According to article PMC4831468, “White collar 1‐induced photolyase expression contributes to UV‐tolerance of Ustilago maydis” (MicrobiologyOpen, 2015):

Experiments:
Format in all cases: binding
[1] = target: T1, Phr1 (Mycosarcoma maydis, UniProt A0A0D1DNG6); experiment: UV-Vis absorption spectroscopy of copurified chromophore (about […] nm peak); details: copurified from E. coli; antenna chromophore, second site beside FAD; assigned from spectrum only
T1 construct: gene UMAG_06079
T1 sequence (A0A0D1DNG6 1-655): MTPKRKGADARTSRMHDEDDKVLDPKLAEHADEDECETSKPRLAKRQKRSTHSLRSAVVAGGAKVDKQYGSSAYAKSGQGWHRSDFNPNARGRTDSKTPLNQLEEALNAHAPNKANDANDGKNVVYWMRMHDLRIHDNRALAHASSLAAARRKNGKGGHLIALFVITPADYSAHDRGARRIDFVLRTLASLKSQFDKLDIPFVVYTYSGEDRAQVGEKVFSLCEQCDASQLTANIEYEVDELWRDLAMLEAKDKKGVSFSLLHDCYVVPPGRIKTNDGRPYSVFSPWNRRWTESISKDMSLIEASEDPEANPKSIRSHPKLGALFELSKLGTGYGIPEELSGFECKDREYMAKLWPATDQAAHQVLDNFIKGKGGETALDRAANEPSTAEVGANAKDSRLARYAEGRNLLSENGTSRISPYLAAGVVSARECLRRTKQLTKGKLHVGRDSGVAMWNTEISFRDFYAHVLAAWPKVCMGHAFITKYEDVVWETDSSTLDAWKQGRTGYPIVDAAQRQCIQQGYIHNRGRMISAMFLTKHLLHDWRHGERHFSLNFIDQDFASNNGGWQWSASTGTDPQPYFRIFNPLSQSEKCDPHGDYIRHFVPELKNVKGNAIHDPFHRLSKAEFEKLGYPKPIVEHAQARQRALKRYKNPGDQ

[2] = target: T2, Cry2 (Mycosarcoma maydis, UniProt A0A0D1DUB1); experiment: as above; details: copurified from E. coli; antenna chromophore, second site beside FAD; assigned from spectrum only
T2 construct: gene UMAG_05917; pET51b, 10xHis- and Strep-tagged, E. coli Arctic Express
T2 sequence (A0A0D1DUB1 1-623): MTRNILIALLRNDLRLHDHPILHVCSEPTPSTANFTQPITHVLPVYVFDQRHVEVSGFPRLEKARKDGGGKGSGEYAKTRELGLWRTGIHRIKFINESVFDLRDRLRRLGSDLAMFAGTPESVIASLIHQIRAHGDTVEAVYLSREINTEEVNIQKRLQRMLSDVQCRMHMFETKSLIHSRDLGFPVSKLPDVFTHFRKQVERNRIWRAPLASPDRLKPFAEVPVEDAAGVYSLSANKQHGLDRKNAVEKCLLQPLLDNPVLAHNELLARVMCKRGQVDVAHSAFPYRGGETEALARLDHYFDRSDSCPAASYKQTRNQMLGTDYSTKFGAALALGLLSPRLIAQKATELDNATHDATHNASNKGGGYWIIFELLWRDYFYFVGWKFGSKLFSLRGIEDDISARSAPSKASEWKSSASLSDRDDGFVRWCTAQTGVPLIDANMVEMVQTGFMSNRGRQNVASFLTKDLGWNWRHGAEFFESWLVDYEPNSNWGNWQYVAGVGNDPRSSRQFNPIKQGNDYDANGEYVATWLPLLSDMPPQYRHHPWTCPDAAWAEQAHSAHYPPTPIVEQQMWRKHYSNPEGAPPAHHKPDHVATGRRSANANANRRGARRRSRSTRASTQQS

[3] = target: T2, Cry2; experiment: UV-Vis absorption spectroscopy of copurified chromophore; blue-light photoreduction; details: copurified from E. coli; photoreduction with 10 mM DTT, pH 7.5, 15 C
[4] = target: T3, Phr2 (Mycosarcoma maydis, UniProt A0A0D1E060); experiment: as above; details: copurified from E. coli; photoreduction with 10 mM DTT, pH 7.5, 15 C
T3 construct: gene UMAG_02144; pET51b, 10xHis- and Strep-tagged, E. coli Rosetta(DE3)
T3 sequence (A0A0D1E060 1-684): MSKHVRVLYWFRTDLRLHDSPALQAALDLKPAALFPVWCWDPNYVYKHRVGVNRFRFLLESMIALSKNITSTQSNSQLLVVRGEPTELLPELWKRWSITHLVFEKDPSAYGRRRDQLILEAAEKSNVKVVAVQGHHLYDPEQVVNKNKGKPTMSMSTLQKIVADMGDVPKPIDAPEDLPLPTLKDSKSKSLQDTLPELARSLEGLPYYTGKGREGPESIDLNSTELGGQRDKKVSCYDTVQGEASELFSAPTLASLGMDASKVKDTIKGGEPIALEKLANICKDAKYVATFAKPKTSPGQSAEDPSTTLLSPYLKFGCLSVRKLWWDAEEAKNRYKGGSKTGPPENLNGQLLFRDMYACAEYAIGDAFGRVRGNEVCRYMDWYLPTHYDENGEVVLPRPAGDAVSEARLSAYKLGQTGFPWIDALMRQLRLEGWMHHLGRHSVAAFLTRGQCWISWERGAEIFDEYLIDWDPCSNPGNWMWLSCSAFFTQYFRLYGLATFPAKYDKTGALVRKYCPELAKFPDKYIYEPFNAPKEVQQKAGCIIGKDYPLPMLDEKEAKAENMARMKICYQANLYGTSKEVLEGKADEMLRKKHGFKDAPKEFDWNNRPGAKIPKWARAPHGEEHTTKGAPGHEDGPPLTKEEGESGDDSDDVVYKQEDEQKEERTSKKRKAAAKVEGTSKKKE

[5] = target: T4, Cry1 (Mycosarcoma maydis, UniProt A0A0D1CDQ8); experiment: as above; details: copurified from E. coli; photoreduction with 10 mM DTT, pH 7.5, 15 C
T4 construct: gene UMAG_01131; pET51b, 10xHis- and Strep-tagged, synthetic cDNA, E. coli BL21(DE3)
T4 sequence (A0A0D1CDQ8 1-881): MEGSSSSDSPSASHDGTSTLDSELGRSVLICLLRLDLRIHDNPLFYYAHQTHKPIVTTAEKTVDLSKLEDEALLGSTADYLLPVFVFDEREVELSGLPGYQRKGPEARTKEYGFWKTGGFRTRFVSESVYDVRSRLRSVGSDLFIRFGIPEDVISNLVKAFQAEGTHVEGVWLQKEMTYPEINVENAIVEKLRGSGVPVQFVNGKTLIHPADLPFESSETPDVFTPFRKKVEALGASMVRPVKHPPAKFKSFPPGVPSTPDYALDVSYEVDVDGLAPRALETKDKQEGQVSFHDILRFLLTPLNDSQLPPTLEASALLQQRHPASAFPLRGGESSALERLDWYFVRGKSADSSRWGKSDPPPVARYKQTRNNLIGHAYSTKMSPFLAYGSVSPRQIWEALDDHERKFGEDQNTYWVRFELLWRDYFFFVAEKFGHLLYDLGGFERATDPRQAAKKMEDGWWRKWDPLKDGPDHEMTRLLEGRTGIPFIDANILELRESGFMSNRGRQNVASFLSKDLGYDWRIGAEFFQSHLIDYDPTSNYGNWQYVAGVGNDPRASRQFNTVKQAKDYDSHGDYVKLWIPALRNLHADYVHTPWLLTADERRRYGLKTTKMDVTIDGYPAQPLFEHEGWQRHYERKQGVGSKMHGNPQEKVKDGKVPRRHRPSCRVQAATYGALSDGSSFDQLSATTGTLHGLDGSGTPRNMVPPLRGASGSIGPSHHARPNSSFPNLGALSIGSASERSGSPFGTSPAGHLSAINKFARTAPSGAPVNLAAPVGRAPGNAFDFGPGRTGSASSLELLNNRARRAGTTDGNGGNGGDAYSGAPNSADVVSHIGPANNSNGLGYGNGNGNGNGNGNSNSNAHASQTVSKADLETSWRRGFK

[6] = target: T1, Phr1; experiment: as above; details: copurified from E. coli; photoreduction with 10 mM DTT, pH 7.5, 15 C

Row | SMILES | UV-Vis absorption spectroscopy of copurified chromophore (about 380 nm peak) [1] | UV-Vis absorption spectroscopy of copurified chromophore (about 380 nm peak) [2] | UV-Vis absorption spectroscopy of copurified chromophore; blue-light photoreduct [3] | UV-Vis absorption spectroscopy of copurified chromophore; blue-light photoreduct [4] | UV-Vis absorption spectroscopy of copurified chromophore; blue-light photoreduct [5] | UV-Vis absorption spectroscopy of copurified chromophore; blue-light photoreduct [6]
1 | Nc1nc2c(c(=O)[nH]1)[N+]1=CN(c3ccc(C(=O)N[C@@H](CCC(=O)O)C(=O)O)cc3)C[C@H]1CN2 [MTHF] | Methenyltetrahydrofolate (MTHF) is the second cofactor of Cry2 and Phr1 | Methenyltetrahydrofolate (MTHF) is the second cofactor of Cry2 and Phr1 | – | – | – | –
2 | Cc1cc2nc3c(=O)[nH]c(=O)nc-3n(C[C@H](O)[C@H](O)[C@H](O)COP(=O)(O)OP(=O)(O)OC[C@H]3O[C@@H](n4cnc5c(N)ncnc54)[C@H](O)[C@@H]3O)c2cc1C [FAD] | – | – | these data proved that all CPF members of U. maydis bind FAD | these data proved that all CPF members of U. maydis bind FAD | these data proved that all CPF members of U. maydis bind FAD | these data proved that all CPF members of U. maydis bind FAD
